Experiments:
obese dogs [1] = experiment: Clinical trial in obese dogs: serum biochemical parameters; format: in vivo; details: for ALB / ALP / ALT / AST / BUN / CPK / CRE / GGT / Glu / TC / TP / TG: serum
Procedure: (§1) A total of 20 dogs were selected and divided into 4 groups with 5 dogs in each group: a normal obese control (OC); hereinafter, referred to as a control (OC)), an enavogliflozin 0.2-administered group, an enavogliflozin 0.5-administered group, and an enavogliflozin 1-administered group. The control was fed regular feed, and the enavogliflozin-administered groups were fed regular feed supplemented with enavogliflozin at doses of 0.2, 0.5, or 1 mg/kg, respectively. The feed was supplemented with enavogliflozin once a day for 8 weeks and given orally.
Biological analysis was performed as follows. A portion of the blood collected on the day of the test was transferred to a vacuum tube containing a coagulation activator, left at room temperature for 15 to 20 minutes to solidify, and then centrifuged at 3000 rpm, thereby obtaining serum. Serum biochemical parameters were evaluated using a Hitachi 7180 device (Hitachi, Tokyo, Japan). The evaluated biochemical parameters are aspartate aminotransferase (AST), alanine aminotransferase (ALT), alkaline phosphatase (ALP), creatine phosphokinase (CPK), total bilirubin (TBIL), glucose (GLU), total cholesterol (TC), triglycerides (TG), total protein (TP), albumin (ALB), gamma-glutamyl transpeptidase (GGT), blood urea nitrogen (BUN), creatinine (CRE), inorganic phosphorus (IP), calcium (Ca), and C-reactive protein (CRP).

obese dogs [2] = experiment: Clinical trial in obese dogs: feed intake; format: in vivo; details: for feed intake compared to the control (OC): during the 10-week experimental period
Procedure: as §1, with “The feed was supplemented with enavogliflozin once a day for 8 weeks and given orally.” left out

[3] = Non-clinical toxicity test: 13 weeks repeated oral administration, changes in body weight; format: in vivo, beagles
Procedure: Changes in body weight were confirmed after administering enavogliflozin to four female and four male 6-month-old normal beagles at 0 (control, gelatin capsule), 1, 3, and 6 mg/kg/day for 13 weeks. The above amounts of enavogliflozin were charged in a gelatin capsule and administered daily.

obese dogs [4] = experiment: Clinical trial in obese dogs: hematological tests; format: in vivo
Procedure: as §1
Hematological tests were performed on the day before the first administration of enavogliflozin and once every two weeks for the next 10 weeks. A portion of the blood collected on the day of the test was stored in a CBC tube containing the anticoagulant EDTA-2K to assess a red blood cell (RBC) count, hematocrit (Hct), a hemoglobin (Hb) concentration, a white blood cell (WBC) count, and a platelet (PLT) count using an automated hematology analyzer (ADVIA 2120i™, Siemens Healthcare Diagnostics, Vienna, Austria).

[5] = obese dogs, 0.2 mg/kg once a day oral for 8 weeks
[6] = obese dogs, 0.5 mg/kg once a day oral for 8 weeks
[7] = obese dogs, 1 mg/kg once a day oral for 8 weeks
[8] = 0.2 mg/kg once a day oral for 8 weeks
[9] = 0.5 mg/kg once a day oral for 8 weeks
[10] = 1 mg/kg once a day oral for 8 weeks

ALB (obese dogs [1]; [5]): 3.48 ± 0.42 g/dL
TP (obese dogs [1]; [5]): 6.78 ± 0.66 g/dL
ALB (obese dogs [1]; [6]): 2.95 ± 0.19 g/dL
TP (obese dogs [1]; [6]): 6.43 ± 0.32 g/dL
ALB (obese dogs [1]; [7]): 2.92 ± 0.29 g/dL
TP (obese dogs [1]; [7]): 6.14 ± 0.54 g/dL
Hb (obese dogs [4]; [8]): 16.34 ± 2.68 g/dL
Hct (obese dogs [4]; [8]): 49.86 ± 7.08%
Platelet (obese dogs [4]; [8]): 392.20 ± 11.16 ×10^3/μL
RBC (obese dogs [4]; [8]): 6.92 ± 0.79 ×10^6 μL
WBC (obese dogs [4]; [8]): 11.12 ± 3.69 ×10^3 μL
Hb (obese dogs [4]; [9]): 16.40 ± 0.70 g/dL
Hct (obese dogs [4]; [9]): 50.26 ± 1.94%
Platelet (obese dogs [4]; [9]): 307.40 ± 6.02 ×10^3/μL
WBC (obese dogs [4]; [9]): 7.75 ± 2.04 ×10^3 μL
Hb (obese dogs [4]; [10]): 16.16 ± 2.15 g/dL
Hct (obese dogs [4]; [10]): 46.76 ± 6.13%
Platelet (obese dogs [4]; [10]): 299.10 ± 7.65 ×10^3/μL
RBC (obese dogs [4]; [10]): 6.55 ± 1.08 ×10^6 μL
WBC (obese dogs [4]; [10]): 10.01 ± 3.35 ×10^3 μL
hematological indicators, differences between the administration groups (obese dogs [4]; 10-week trial period, except for the platelet (PLT) count): no significant differences
Structure (SMILES): OC[C@H]1O[C@@H](c2cc(Cc3ccc(C4CC4)cc3)c(Cl)c3c2CCO3)[C@H](O)[C@@H](O)[C@@H]1O [Enavogliflozin, enavogliflozin]
C-reactive protein (CRP) compared to the control (OC) (obese dogs [1]; obese dogs, 0.2 mg/kg): significantly decreased
alanine aminotransferase (ALT) compared to the control (OC) (obese dogs [1]; obese dogs, 0.2 mg/kg): significantly decreased
alkaline phosphatase (ALP) compared to the control (OC) (obese dogs [1]; obese dogs, 0.2 mg/kg): significantly decreased
creatine phosphokinase (CPK) compared to the control (OC) (obese dogs [1]; obese dogs, 0.2 mg/kg): significantly decreased
serum gamma-glutamyl transpeptidase (GGT) compared to the control (OC) (obese dogs [1]; obese dogs, 0.2 mg/kg): significantly decreased
serum total cholesterol (TC) compared to the control (OC) (obese dogs [1]; obese dogs, 0.2 mg/kg): lower than those of the control (OC)
triglyceride (TG) concentration compared to the control (OC) (obese dogs [1]; obese dogs, 0.2 mg/kg): lower than those of the control (OC)
glucose (GLU) concentration compared to the control (OC) (obese dogs [1]; obese dogs, 1 mg/kg): significantly lower
serum triglyceride (TG) concentrations compared to the control (obese dogs [1]; obese dogs, 0.2, 0.5 and 1 mg/kg groups): significantly lower than that of the control
fasting glucose compared to the control (OC) (obese dogs [1]; obese dogs, all administration groups): decreased compared to the control (OC)
ALP (obese dogs [1]; [5]): 84.60 ± 63.96 IU/L
ALT (obese dogs [1]; [5]): 18.84 ± 4.00 IU/L
AST (obese dogs [1]; [5]): 31.00 ± 1.83 IU/L
BUN (obese dogs [1]; [5]): 18.70 ± 10.29 mg/dL
CPK (obese dogs [1]; [5]): 111.12 ± 30.97 IU/L
CRE (obese dogs [1]; [5]): 0.78 ± 0.21 mg/dL
GGT (obese dogs [1]; [5]): 7.80 ± 1.64 IU/L
Glu (obese dogs [1]; [5]): 107.20 ± 10.85 mg/dL
TC (obese dogs [1]; [5]): 183.84 ± 36.01 mg/dL
TG (obese dogs [1]; obese dogs, 0.2 mg/kg once a day oral for 8 weeks, 0.2 mg/kg): 142.00 ± 95.55 mg/dL
TG (obese dogs [1]; obese dogs, 0.2 mg/kg once a day oral for 8 weeks, listed as enavogliflozin, 0.2 mg/kg): 142.00 ± 95.55 mg/dL
ALP (obese dogs [1]; [6]): 146.20 ± 121.67 IU/L
ALT (obese dogs [1]; [6]): 36.80 ± 14.43 IU/L
AST (obese dogs [1]; [6]): 31.84 ± 12.92 IU/L
BUN (obese dogs [1]; [6]): 22.25 ± 8.64 mg/dL
CPK (obese dogs [1]; [6]): 136.50 ± 42.99 IU/L
CRE (obese dogs [1]; [6]): 0.82 ± 0.15 mg/dL
GGT (obese dogs [1]; [6]): 9.46 ± 5.37 IU/L
Glu (obese dogs [1]; [6]): 97.77 ± 10.19 mg/dL
TC (obese dogs [1]; [6]): 298.00 ± 71.14 mg/dL
TG (obese dogs [1]; obese dogs, 0.5 mg/kg once a day oral for 8 weeks, 0.5 mg/kg): 133.86 ± 70.19 mg/dL
TG (obese dogs [1]; obese dogs, 0.5 mg/kg once a day oral for 8 weeks, listed as enavogliflozin, 0.5 mg/kg): 133.86 ± 70.19 mg/dL
ALP (obese dogs [1]; [7]): 186.20 ± 184.59 IU/L
ALT (obese dogs [1]; [7]): 38.60 ± 19.72 IU/L
AST (obese dogs [1]; [7]): 110.00 ± 167.92 IU/L
BUN (obese dogs [1]; [7]): 23.44 ± 13.17 mg/dL
CPK (obese dogs [1]; [7]): 260.40 ± 126.79 IU/L
CRE (obese dogs [1]; [7]): 0.92 ± 0.36 mg/dL
GGT (obese dogs [1]; [7]): 21.60 ± 29.36 IU/L
Glu (obese dogs [1]; [7]): 94.00 ± 13.47 mg/dL
TC (obese dogs [1]; [7]): 309.00 ± 129.40 mg/dL
TG (obese dogs [1]; obese dogs, 1 mg/kg once a day oral for 8 weeks, 1 mg/kg): 282.60 ± 419.03 mg/dL
TG (obese dogs [1]; obese dogs, 1 mg/kg once a day oral for 8 weeks, listed as enavogliflozin, 1 mg/kg): 282.60 ± 419.03 mg/dL
Change rates of food consumption (obese dogs [2]; 0.2 mg/kg once a day oral for 8 weeks, week 0): 100.00 ± 0.00%
Change rates of food consumption (obese dogs [2]; 0.2 mg/kg once a day oral for 8 weeks, week 2): 126.52 ± 5.48 %
Change rates of food consumption (obese dogs [2]; 0.2 mg/kg once a day oral for 8 weeks, week 4): 146.64 ± 5.37 %
Change rates of food consumption (obese dogs [2]; 0.2 mg/kg once a day oral for 8 weeks, week 6): 153.71 ± 4.11 %
Change rates of food consumption (obese dogs [2]; 0.2 mg/kg once a day oral for 8 weeks, week 8): 168.32 ± 4.80 %
Change rates of food consumption (obese dogs [2]; 0.2 mg/kg once a day oral for 8 weeks, week 10, 0.2 mg/kg): 166.59 ± 4.72 %
Change rates of food consumption (obese dogs [2]; 0.2 mg/kg once a day oral for 8 weeks, week 10, listed as enavogliflozin, 0.2 mg/kg): 166.59±4.72%
feed intake compared to the control (OC) (obese dogs [2]; 0.2 mg/kg, p<0.001): significantly increased
Change rates of food consumption (obese dogs [2]; 0.5 mg/kg once a day oral for 8 weeks, week 0): 100.00 ± 0.00%
Change rates of food consumption (obese dogs [2]; 0.5 mg/kg once a day oral for 8 weeks, week 2): 95.13 ± 1.67 %
Change rates of food consumption (obese dogs [2]; 0.5 mg/kg once a day oral for 8 weeks, week 4): 92.34 ± 2.10 %
Change rates of food consumption (obese dogs [2]; 0.5 mg/kg once a day oral for 8 weeks, week 6): 92.30 ± 1.60 %
Change rates of food consumption (obese dogs [2]; 0.5 mg/kg once a day oral for 8 weeks, week 8): 93.64 ± 1.67 %
Change rates of food consumption (obese dogs [2]; 0.5 mg/kg once a day oral for 8 weeks, week 10, 0.5 mg/kg): 98.47 ± 1.44%
Change rates of food consumption (obese dogs [2]; 0.5 mg/kg once a day oral for 8 weeks, week 10, listed as enavogliflozin, 0.5 mg/kg): 98.47±1.44%
feed intake compared to the control (OC) (obese dogs [2]; 0.5 mg/kg): decreased
Change rates of food consumption (obese dogs [2]; 1 mg/kg once a day oral for 8 weeks, week 0): 100.00 ± 0.00%
Change rates of food consumption (obese dogs [2]; 1 mg/kg once a day oral for 8 weeks, week 2): 100.80 ± 4.20%
Change rates of food consumption (obese dogs [2]; 1 mg/kg once a day oral for 8 weeks, week 4): 116.02 ± 3.09 %
Change rates of food consumption (obese dogs [2]; 1 mg/kg once a day oral for 8 weeks, week 6): 121.84 ± 2.50 %
Change rates of food consumption (obese dogs [2]; 1 mg/kg once a day oral for 8 weeks, week 8): 121.88 ± 2.36 %
Change rates of food consumption (obese dogs [2]; 1 mg/kg once a day oral for 8 weeks, week 10, 1 mg/kg): 123.15 ± 2.45 %
Change rates of food consumption (obese dogs [2]; 1 mg/kg once a day oral for 8 weeks, week 10, listed as enavogliflozin, 1 mg/kg): 123.15±2.45%
feed intake compared to the control (OC) (obese dogs [2]; 1 mg/kg, p<0.001): significantly increased
body weight decrease compared to the control ([3]; normal female beagles, 1 mg/kg/day oral): 19.6%
body weight decrease compared to the control ([3]; normal female beagles, 3 mg/kg/day oral): 18.5%
body weight decrease compared to the control ([3]; normal female beagles, 6 mg/kg/day oral): 33.2%
body weight decrease compared to the control ([3]; normal male beagles, 1 mg/kg/day oral): 17.7%
body weight decrease compared to the control ([3]; normal male beagles, 3 mg/kg/day oral): 16%
body weight decrease compared to the control ([3]; normal male beagles, 6 mg/kg/day oral): 29.9%
platelet (PLT) count compared to the control (OC) (obese dogs [4]; 1 mg/kg, p<0.05): significantly lower than that of the control (OC)
